Source: patent publication EP2535046A1 (priority 2011, dated 2012)

Tests used:
[1] = system: RABV; design: species or system mice; conditions: mouse, in vivo
[2] = system: STAT3, STAT3-P, ERK1/2, phosphorylated-ERK1/2 (Thr202/Tyr204); design: species or system mice; conditions: mouse, in vivo
[3] = system: IL-6, CXCL10, IFN-γ and TNFα; design: species or system mice; conditions: mouse, in vivo
[4] = system: thymocytes and splenocytes; design: species or system mice; conditions: mouse, in vivo
[5] = system: splenocytes subsets; design: species or system mice; conditions: mouse, in vivo
[6] = system: RABV; design: species or system mice; conditions: mouse, in vivo; remark: listed apart in the source
[7] = system: Fkbp51; design: species or system mice; conditions: mouse, in vivo
[8] = system: nNOS; design: species or system mice; conditions: mouse, in vivo
[9] = system: RABV CVS-NIV; design: species or system C57BL/6J mice; conditions: mouse, in vivo
[10] = mouse, in vivo

Compound: CNC1(C)C2CCC(C2)C1(C)C (stereo not drawn) [mecamylamine, N,2,3,3-Tetramethylbicyclo[2.2.1] heptan-2 amine]
- RABV N protein transcripts among survivors [1]: less viral transcripts than the mock-treated animals
- expression and phosphorylation of STAT3 and ERK1/2 in the brain [2]: reduces expression and phosphorylation of STAT3 and ERK1/2 to levels similar to those observed in the non-infected brain
- IFN-γ and TNFα transcription in the spinal cord [3]: slowed-down
- IL6 or CXCL10 kinetic in the spinal cord [3]: no effect
- cytokines expression at transcriptional level (IL-6, CXCL10, IFN-γ, TNFα) in the brain [3]: did not modify significantly
- inflammatory cytokines expression in the liver [3]: No difference
- number of splenocytes [4]: increased the number of splenocytes
- cellularity of the spleen (number of splenocytes) ([4]; ip, 2 mg/kg): protects cellularity of the spleen
- number of thymocytes (RABV-mediated drop) ([4]; ip, 2 mg/kg): no effect on the drop of thymocytes
- main subsets of spleen cells (TCRαβ, CMH class II, CD4, CD8, plasmocytes expressing IgG) [5]: prevents the RABV-mediated disappearance
- numbers of CD4 T cells expressing CD25 and numbers of CD3 expressing CD69 [5]: restored
- effect on RABV specific neutralizing antibodies [6]: no effect
- transcription of the glucocorticoid-inducible gene Fkbp51 [7]: no effect
- nNOS transcription in the brain [8]: block the nNOS decrease
- RABV pathogenesis [9]: did not modify RABV pathogenesis
- clinical scores [9]: decreases the severity of the clinical scores
- weight loss [9]: interrupted the weight loss
- side effects such as weight loss or behavior modification [10]: does not induced obvious side effects
